Experimental data as given in article PMC10938783, “A novel pan-PI3K inhibitor KTC1101 synergizes with anti-PD-1 therapy by targeting tumor suppression and immune activation” (Molecular Cancer, 2024).

Experiments:
[1] = system: kinase panel comprising 50 kinases; assay: Kinase profiling, panel of 50 kinases; type: biochemical; conditions: 1 μM
Procedure: Procedures for the preparation of KTC1101 are described in supplemental data. To investigate the PI3K inhibitory efficacy of KTC1101, its impact on the kinase activity of PI3K isoforms was assessed using the Adapta kinase assay as previously reported. Initially, a dilution series of 2.5 µL KTC1101 or DMSO (control) was prepared and added to the respective wells of a 384-well plate. Subsequently, optimized 2.5 µL kinase solutions, including PIK3CA/PIK3R1, PIK3CB/PIK3R1, PIK3CG, and PIK3CD/PIK3R1, were introduced to each well. After adding the kinase solutions, 5 µL ATP and PIP2:PS lipid kinase substrate was introduced into each well and incubated for 1 h at room temperature. This step allows for the initiation and progression of the kinase reaction. Following the incubation, a detection solution (5 µL) was added to all the wells. This solution contained 30 mM EDTA to stop the kinase reaction, 6 nM Eu-labeled anti-ADP antibody, and a 3 × concentration of Alexa Fluor® 647 ADP tracer. The EDTA effectively terminates the kinase reaction, while the anti-ADP antibody and ADP tracer are crucial for the detection of ADP produced during the kinase reaction, which correlates with PI3K activity. […] Finally, the fluorescence of each well was measured using a Multi-Mode Microplate Reader (Spark, Tecan). […]

B16 cells = assay: Cell proliferation MTT assay; type: cell-based, mouse; conditions: B16 cells in vitro, 48 h
Procedure: (§1) Cell proliferation was measured by MTT assay as previously described. The cells were seeded in a volume of 200 μL/well in 96-well plates. The next day, cells were treated with DMSO or a series of concentrations of KTC1101. After a 48-h incubation period, 20 μL of MTT (5 mg/mL) was added to each well. After further incubation for 4 h at 37 °C, the absorbance at 490 nm was measured using an iMark microplate reader (BIO-RAD, Hercules, CA, USA).

S24 cells = assay: Cell proliferation MTT assay; type: cell-based, mouse; conditions: 48 h
Procedure: as §1

[2] = system: phosphorylation of AKT and mTOR; assay: Western blot of PI3K pathway; type: cell-based, human; conditions: 48 h
Procedure: Western blots were performed as previously described. Cells were seeded into six-well plates and treated with DMSO or a series of concentrations of KTC1101. Cells were lysed, and total proteins were harvested. Equal amounts of protein (20–50 μg) were separated using 8% or 12% SDS-PAGE and transferred to polyvinylidene difluoride membranes (Bio-Rad). After blocking in 5% nonfat dry milk, the membranes were incubated with appropriate primary antibodies overnight at 4 °C, washed, and incubated with respective HRP-conjugated secondary antibodies for 1 h at room temperature. The signals were detected using a ChemiDoc XRS + System (Bio-Rad) after exposure to chemiluminescence reagents (Bio-Rad), and β-actin served as the loading control.

tumor cell lines = assay: Apoptosis analysis; type: cell-based, human; conditions: tested cell lines, 48 h
CD4^+ T cells = assay: T cell suppression assay (CFSE); type: cell-based; conditions: Mus musculus, 72 h, read-out: IC50 proliferation
Procedure: (§2) Spleens from naive mice were isolated and ground through 70-μm filters to generate a single-cell suspension. After RBC lysis, single-cell suspensions were stained with CD3, CD8, CD4, CD25 or CD127 antibodies. Viable CD8^+ T cells (CD3^+CD8^+), CD4^+ T cells (CD3^+CD4^+), and Tregs (CD3^+CD4^+CD25^+CD127^low/−) from single-cell suspensions were sorted by FACS. Then T cells were labelled with […] in pre-warmed PBS for 10 min at 37 °C. The CFSE-labelled T cells were seeded in 96-well plates pre-coated with 10 μg/mL CD3 and 1 μg/mL CD28 antibodies and cultured in 1640 media with 10% FBS, 1 mM Sodium Pyruvate (Thermo, 11,360,070), 50 μM β-ME and 100 IU/mL IL2, as well as different concentrations of KTC1101 or solvent control. After 72 h, cells were harvested and the CFSE signal was measured by flow cytometry. Cell growth rate was calculated by the percentage of live, proliferated cell number at each drug concentration vs. solvent control.

CD8^+ T cells = assay: T cell suppression assay (CFSE); type: cell-based; conditions: Mus musculus, 72 h, read-out: IC50 proliferation
Procedure: as §2

[3] = system: immune cell populations in B16 tumors; assay: Flow cytometry of tumor-infiltrating immune cells; type: in vivo, mouse; conditions: intermittent dosing
Procedure: To obtain single-cell suspensions for analysis by flow cytometry, tumors were excised, minced, and dissociated in Deoxyribonuclease/collagenase/hyaluronidase buffer (0.1 mg/mL Deoxyribonuclease I, 0.2 mg/mL Collagenase IV and 0.2 mg/mL Hyaluronidase) for 60 min at 37 °C with agitation, and strained through a 70 μm strainer for downstream applications. Tissue was dissociated as described above to obtain single-cell suspensions. Cells were stained with antibodies for 30 min at 4 °C, and then fixed and intracellularly stained using Foxp3/ Transcription Factor Staining Buffer Set (eBioscience) according to the manufacturer’s instructions. Antibodies used in this study can be found in Supplementary Table 2. The stained cells were acquired on a BD C6 Flow Cytometer using BD AccuriTM C6 Software (BD Biosciences) and the data were processed using FlowJo software.

[4] = Drug concentration measurement in tumors; type: in vivo, mouse; conditions: B16 tumors, continuous dosing
Procedure: To evaluate the intratumoral concentration of KTC1101, the B16 murine cancer model was established by subcutaneously implanting 2.5 × 10^5 B16 cells into the right lateral flank of C57BL/6 mice. The mouse model was utilized for experiments when tumor volumes reached approximately 100 mm^3. The B16 tumor-bearing C57BL/6 mice were divided into groups, with each group comprising three mice. They were treated with KTC1101 at doses of either 50 or 100 mg/kg (PO). The mice were sacrificed, and tumors were collected on days 1, 5, and 7 post-treatment. Approximately 50 mg of each tumor was homogenized in 1 mL of methanol, followed by centrifugation at 12,000 rpm at 4 °C for 10 min. The concentration of KTC1101 in the supernatant was quantified using LC–MS.

COc1cc(N)cc2c1nc(C(F)F)n2-c1nc(N2CCCOCC2)nc(N2CCOCC2)n1 [KTC1101, 2-(difluoromethyl)-4-methoxy-1-(4-morpholino-6-(1,4-oxazepan-4-yl)-1,3,5-triazin-2-yl)-1H-benzo[d]imidazol-6-amine]
inhibition rate, all four PI3K targets [1]: greater than 90%
inhibition rate, other kinases of the panel [1]: less than 50%
anti-proliferative activity (B16 cells): strong anti-proliferative activity
sensitivity in vitro (S24 cells): showed sensitivity
phosphorylation of AKT and mTOR [2]: reduced phosphorylation
induction of apoptosis (tumor cell lines): did not observe a potent induction of apoptosis except HSC2 cell line
IC50 (CD4^+ T cells): 16 nM
IC50 (CD8^+ T cells): 31.7 nM
intratumoral T cell populations (FACS) [3]: increase in intratumoral CD8^+ T, CD4^+ T, and a reduction of Treg cells
intratumoral drug concentration [4]: accumulation of the drug in continuous dosing
